Experimental data reported in ChEMBL document CHEMBL3352061, “Novel amino-β-lactam derivatives as potent cholesterol absorption inhibitors” (Eur J Med Chem, 2014).

What was measured:
[1] = Inhibition of cholesterol uptake in MDCK2 cells expressing human NPC1L1 after 1 hr by liquid scintillation counting; format: cell-based; details: Canis lupus familiaris, MDCK-II
[2] = Inhibition of cholesterol uptake in MDCK2 cells at 20 to 100 uM after 1 hr by liquid scintillation counting; format: cell-based, Canis lupus familiaris; details: dog, mdck-ii
[3] = Inhibition of cholesterol uptake in MDCK2 cells expressing human NPC1L1 at 20 to 100 uM after 1 hr by liquid scintillation counting; format: cell-based, Canis lupus familiaris; details: dog, mdck-ii

| IC50 [1] [µM] | inhibition (INH) [2] | inhibition (INH) [3] | SMILES |
| --- | --- | --- | --- |
| 80 |  |  | O=C1[C@H](NC[C@H](O)c2ccc(F)cc2)[C@@H](c2ccc(O)cc2)N1c1ccc(F)cc1 |
| 60 |  |  | O=C1[C@H](NC[C@@H](O)c2ccc(F)cc2)[C@@H](c2ccc(O)cc2)N1c1ccc(F)cc1 |
|  | Not Active | Active | O=C1[C@H](CC[C@H](O)c2ccc(F)cc2)[C@@H](c2ccc(O)cc2)N1c1ccc(F)cc1 [EZETIMIBE] |
